Assay results reported in PubChem BioAssay AID2060884 (Molecular Pharmacology Branch, DTP, NCI, 2025).

Test system: NCI-H929 complex spheroids, viability % test/control
Assay: Anticancer human tumor NCI-H929 cell line growth inhibition [RAS];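 also: compound exposure lasted seven days before viability was read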;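 as to viability, T/C: 100% = DMSO vehicle control viability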
Conditions: for IC50: curve of first compound; for viability, T/C: stronger effect = lower value; active = viability on the fitted dose curve at most 10% of control; inactive = the rest
Method in brief: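 Multi-cell-type spheroids: tumor cells plus HUVEC endothelial cells and mesenchymal stem cells. RAS-pathway inhibitors were combined with targeted agents, each dosed in half-log steps down from clinical Cmax, or from 10 microM when Cmax was unknown.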

NC1c2ccccc2OC12CCN(c1cnc3c(N4CCCc5ncccc54)n[nH]c3n1)CC2 (configuration not stated) + CCn1c(-c2cccnc2C(C)OC)c2c3cc(ccc31)N1CCOC(CC(NC(=O)C(C(C)C)N(C)C(=O)C3(F)CCN(C(=O)C#CC(C)(C)N(C)C)CC3)C(=O)N3CCCC(N3)C(=O)OCC(C)(C)C2)C1
inactive: viability, T/C (second compound 0.000949 µM, first compound 0.0316 µM) 103% | viability, T/C (second compound 0.000949 µM, first compound 0.1 µM) 100% | viability, T/C (second compound 0.000949 µM, first compound 0.316 µM) 103% | viability, T/C (second compound 0.000949 µM, first compound 1 µM) 98.5% | viability, T/C (second compound 0.000949 µM, first compound 3.16 µM) 94.5% | viability, T/C (second compound 0.000949 µM, first compound 10 µM) 60.7% | viability, T/C (second compound 0.003 µM, first compound 0.0316 µM) 103% | viability, T/C (second compound 0.003 µM, first compound 0.1 µM) 96.5% | viability, T/C (second compound 0.003 µM, first compound 0.316 µM) 102% | viability, T/C (second compound 0.003 µM, first compound 1 µM) 97.7% | viability, T/C (second compound 0.003 µM, first compound 3.16 µM) 95.7% | viability, T/C (second compound 0.003 µM, first compound 10 µM) 58.5% | viability, T/C (second compound 0.00949 µM, first compound 0.0316 µM) 101% | viability, T/C (second compound 0.00949 µM, first compound 0.1 µM) 99.6% | viability, T/C (second compound 0.00949 µM, first compound 0.316 µM) 101% | viability, T/C (second compound 0.00949 µM, first compound 1 µM) 96.8% | viability, T/C (second compound 0.00949 µM, first compound 3.16 µM) 93.2% | viability, T/C (second compound 0.00949 µM, first compound 10 µM) 54.1% | viability, T/C (second compound 0.03 µM, first compound 0.0316 µM) 97.7% | viability, T/C (second compound 0.03 µM, first compound 0.1 µM) 96.9% | viability, T/C (second compound 0.03 µM, first compound 0.316 µM) 99.8% | viability, T/C (second compound 0.03 µM, first compound 1 µM) 99.7% | viability, T/C (second compound 0.03 µM, first compound 3.16 µM) 90.9% | viability, T/C (second compound 0.03 µM, first compound 10 µM) 54.2% | viability, T/C (second compound 0.0949 µM, first compound 0.0316 µM) 99.1% | viability, T/C (second compound 0.0949 µM, first compound 0.1 µM) 98.2% | viability, T/C (second compound 0.0949 µM, first compound 0.316 µM) 93.6% | viability, T/C (second compound 0.0949 µM, first compound 1 µM) 91.2% | viability, T/C (second compound 0.0949 µM, first compound 3.16 µM) 86.5% | viability, T/C (second compound 0.0949 µM, first compound 10 µM) 46.3% | viability, T/C (second compound 0.3 µM, first compound 0.0316 µM) 95.7% | viability, T/C (second compound 0.3 µM, first compound 0.1 µM) 99.6% | viability, T/C (second compound 0.3 µM, first compound 0.316 µM) 99.5% | viability, T/C (second compound 0.3 µM, first compound 1 µM) 93.2% | viability, T/C (second compound 0.3 µM, first compound 3.16 µM) 76.8% | viability, T/C (second compound 0.3 µM, first compound 10 µM) 47.2%
9.05 µM: IC50 (second compound 0.0949 µM)
> 10 µM: IC50 (second compound 0.000949 µM) | IC50 (second compound 0.003 µM) | IC50 (second compound 0.00949 µM) | IC50 (second compound 0.03 µM)
8.98 µM: IC50 (second compound 0.3 µM)
